Key:
FOXM1 = molecular target: T1, FOXM1 (Rattus norvegicus, UniProt P97691); experiment: RT-qPCR of FOXM1 target gene transcripts in spinal cord; assay type: in vivo; conditions: rats, compared to intact controls, FIG. 5G
T1 construct: from tissue; host or cells: Sprague Dawley rat spinal cord
T1 sequence (P97691 1-759): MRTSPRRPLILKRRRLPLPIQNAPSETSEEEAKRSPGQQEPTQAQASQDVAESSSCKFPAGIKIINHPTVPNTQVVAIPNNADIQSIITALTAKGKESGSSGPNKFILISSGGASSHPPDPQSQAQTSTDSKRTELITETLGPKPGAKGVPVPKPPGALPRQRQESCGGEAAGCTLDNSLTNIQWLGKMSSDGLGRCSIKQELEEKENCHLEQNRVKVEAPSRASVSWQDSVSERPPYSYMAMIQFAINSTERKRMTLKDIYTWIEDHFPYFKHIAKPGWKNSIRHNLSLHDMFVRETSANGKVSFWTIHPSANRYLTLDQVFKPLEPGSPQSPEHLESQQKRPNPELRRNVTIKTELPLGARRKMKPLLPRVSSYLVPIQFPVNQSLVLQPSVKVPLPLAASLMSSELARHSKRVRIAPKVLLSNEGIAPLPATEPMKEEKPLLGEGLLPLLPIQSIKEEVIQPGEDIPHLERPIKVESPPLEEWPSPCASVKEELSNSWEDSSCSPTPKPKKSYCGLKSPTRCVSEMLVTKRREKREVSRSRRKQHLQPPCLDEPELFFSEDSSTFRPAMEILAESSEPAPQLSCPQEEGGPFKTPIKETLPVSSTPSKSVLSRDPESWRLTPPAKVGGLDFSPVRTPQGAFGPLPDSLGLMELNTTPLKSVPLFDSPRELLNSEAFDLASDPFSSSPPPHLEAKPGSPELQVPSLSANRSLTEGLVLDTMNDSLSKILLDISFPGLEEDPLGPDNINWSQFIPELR
Procedure: Animals and Drugs. This study was carried out in strict accordance with the recommendations in the Guide for the Care and Use of Laboratory Animals of the National Institutes of Health. All experiments were performed under the IUCAC approval of City of Hope. Animals were purchased from Jackson Laboratory (Bar Harbor, Main). For the pilot pharmacokinetic experiment, nine male Sprague Dawley rats (n=3) were administered 1, 10, or 100 mg/kg intraperitoneal injections thrice per week for four weeks. One hour following the final dose, blood and spinal fluid were collected and analyzed by mass spectrometry. For the efficacy experiment, rats were divided into 3 groups (n=7) as follows: intact, castrated, and thiostrepton. […] Following a treatment period of 7 days, rats were euthanized and organs harvested, weighed and processed for quantitative RT-PCR.
qRT-PCR. The quantitative RT-PCR method has been described by Jones et al, ACS Chem Biol, 3(7):412-8 (2008). […] Differences between experimental (x) and control (y) samples were normalized to RPL19 transcript levels (androgen unresponsive) and determined with the following calculation: (2^(Ctsgene1-Ctygene1))/(2^(CtxRPL19-CtyRPL19)) One-way analysis of variance was applied to determine statistical significant among groups, where p<0.05 was considered significant. […]

AR-FOXM1 co-localization = assay type: cell-based, murine; conditions: GT1-7 CARY cells, 24 hours, FIG. 4B
Procedure: Cells were fixed in 2% paraformaldehyde prior to incubating with primary antibody (FOXM1: mouse, AbCam) overnight at 4° C. Following washing, secondary antibody (Alexa 954 goat anti-mouse, Invitrogen) was applied for 45 minutes at 37° C. After washing, slides were mounted and analyzed using a confocal microscope (Zeiss). The coloc-2 Image J plug-in (Fiji) was used to quantify co-localization of AR and FOXM1 from three independent samples using both Li's Intensity Correlation Quotient (ICQ) and Manders split coefficients co-localization values. One-way analysis of variance was applied to determine statistical significant among groups, where p<0.05 was considered significant.

In the case of `C=C(NC(=O)C(=C)NC(=O)c1csc(C2=N[C@@H]3c4csc(n4)[C@H]4NC(=O)c5csc(n5)[C@H]([C@](C)(O)[C@@H](C)O)NC(=O)[C@H]5CSC(=N5)/C(=C/C)NC(=O)[C@H]([C@@H](C)O)NC(=O)c5csc(n5)[C@]3(CC2)NC(=O)[C@H](C)NC(=O)C(=C)NC(=O)[C@H](C)NC(=O)[C@H]([C@@H](C)CC)N[C@@H]2C=Cc3c([C@H](C)O)cc(nc3[C@H]2O)C(=O)O[C@@H]4C)n1)C(N)=O` [thiostrepton], the “transcript levels of FOXM1 target genes Ccndl and Sox2” value (FOXM1) is reported as “decreased” and the “association (co-localization) between FOXM1 and AR” value (AR-FOXM1 co-localization) is reported as “not significantly affected”.

Reference: patent publication US11167007B2, “FOXM1 modulators and uses thereof” (City of Hope, priority 2016, dated 2021)
